Results taken from patent US6475491B1, “Treatment of HIV and other viral infections using combinatorial therapy” (priority 1995, dated 2002).
≈ marks a conversion by molar mass, not a printed value. Entries after “also recorded” stand apart in the source; their conditions may differ. Read-outs that look alike come from different tables or passages of the source.

How the values were obtained:
HIV-1/IIIb = format: cell-based; settings: 5 h
Source text: Anti-HIV assays: The antiviral assays performed were as those described, above, in Section 6.1. Assays utilized HIV-1/IIIb and/or HIV-2 NIHZ isolates. Purified peptides were used, unless otherwise noted in FIGS. 5A-5L.

[1] = Toxicity in in vitro studies and in animals
Source text: The present invention provides the first reported use of such peptides in combination with another antiviral or any other therapeutic agent.

HIV-1LA1 [2] = experiment: Cell fusion assay: syncytia formation, uninfected Molt4 cells co-cultivated with chronically HIV-1 infected CEM cells; format: cell-based
Protocol: A cell fusion assay may be utilized to test the peptides' ability to inhibit HIV-induced syncytia formation in vitro. Such an assay may comprise culturing uninfected CD-4^+ cells (such as Molt or CEM cells, for example) in the presence of chronically HIV-infected cells and a therapeutic agent to be assayed. For each combinational therapy, a range of concentrations may be tested. […] Standard conditions for culturing, well known to those of ordinary skill in the art, are used. After incubation for an appropriate period (24 hours at 37° C., for example) the culture is examined microscopically for the presence of multinucleated giant cells, which are indicative of cell fusion and syncytia formation.
Approximately 7×10^4 Molt cells were incubated with 1×10^4CEM cells chronically infected with the HIV-1LA1 virus in 96-well plates (one-half area cluster plates; Costar, Cambridge, Mass.) in a final volume of 100 μl culture medium as previously described (Matthews, T. J. et al., 1987, Proc. Natl. Acad. Sci. USA 84: 5424-5428). Peptide inhibitors were added in a volume of 10 μl and the cell mixtures were incubated for 24 hr. at 37° C. At that time, multinucleated giant cells were estimated by microscopic examination at a 40×magnification which allowed visualization of the entire well in a single field.
The initial screen for antiviral activity assayed peptides' ability to block syncytium formation induced by overnight co-cultivation of uninfected Molt4 cells with chronically HIV-1 infected CEM cells. […] For these experiments, CEM cells chronically infected with either HIV-1LA1, HIV-1MN, HIV-1RF, or HIV-1SF2 virus were cocultivated overnight with uninfected Molt 4 cells.

HIV-1IIIb [3] = test system: HIV-1IIIb
Protocol: (§6) The results of these assays are analyzed using Chou and Talalay's combination method (Chou and Talalay, 1984, Adv. Enzyme Regul. 22:27-55) and ‘Dose-Effect Analysis with Microcomputers’ software (Chou and Chou, 1987, software and manual. p19-64. Elsevier Biosoft, Cambridge, UK) in order to obtain a Combination Index. Combination Index values <1 indicates synergy, values>1 indicate antagonism and values equal to 1 indicate additive effects.
(§7) For this assay, 3×10^4 uninfected Molt4 cells are cocultivated with 3×10^3 H9/ LA1 or CEM/LA1 chronically infected cells per well in 24 well plates. Inhibitors are added on day 0, and the assay plates are re-fed on days 1 and 3 with growth medium containing the inhibitors. The assay is harvested on day 5. Antiviral activity is measured by several parameters: Western blot analysis of pelleted cells from treated cultures, RT levels, and p24 antigen levels in the supernatant.
(§8) The combined drug effects are calculated by the multiple drug analysis method of Chou and Talalay (Chou and Talalay, 1984, Adv. Enzyme Regul. 22:27-55) and ‘Dose-Effect Analysis with Microcomputers’ software (Chou and Chou, 1987, software and manual. p19-64. Elsevier Biosoft, Cambridge, UK) using the equation: [formula]
(§9) where CI is the combination index, (Dx)1 is the dose of drug 1 required to produce x percent effect alone, (D)1 is the dose of drug 1 required to produce the same x percent effect in combination with (D)2. The values of (Dx)2 and (D)2 are similarly derived from drug 2. The value of α is determined from the plot of the dose effect curve using the median effect equation:
(§10) where fa is the fraction affected by dose D, fu is the uninfected fraction, Dm is the dose required for 50% effect and m is the slope of the dose-effect curve. […] If the agents are mutually exclusive α is 0. and if they are mutually nonexclusive, α is 1. […] CI values of <1 indicate synergy, values>1 indicate antagonism and values equal to 1 indicate additive effects.

HIV-1LA1 [4] = settings: control peptides; cited from earlier work
HIV-1 [5] = settings: cited from earlier work
HIV-1 [6] = settings: cited from earlier work; remark: listed apart in the source
HIV-1IIIb [7] = experiment: Combination indices from in vitro HIV-1IIIb/CEM co-culture (Chou and Talalay)
Protocol: as §6, §7, §8, §9, §10

[8] = Cell proliferation and toxicity assay; format: cell-based; settings: human, CEM cells
Protocol: (§1) Cell proliferation and toxicity assay: Approximately 3.8×10^5 CEM cells for each peptide concentration were incubated for 3 days at 37° C. in T25 flasks. […] The concentrations of each peptide used were 0, 2.5, 10, and 40 μg/ml. Cell counts were taken at incubation times of 0, 24, 48, and 72 hours.
(§2) Additionally, cells were incubated in the absence of either peptide.

CEM cells = experiment: Cell proliferation and toxicity assay; format: cell-based
Protocol: as §1, §2

HIV-1MN = experiment: Cell fusion assay: syncytia formation, Molt4 cells with chronically infected CEM cells; format: cell-based; settings: HIV-1MN infected CEM cells
Source text: (§3) The results of several such experiments are presented herein.

HIV-1RF = experiment: as above; format: cell-based; settings: HIV-1RF infected CEM cells
Source text: as §3

HIV-1SF2 = experiment: as above; format: cell-based; settings: HIV-1SF2 infected CEM cells
Source text: as §3

HIV-2 = experiment: Cell fusion assay: HIV-2 mediated syncytia formation; format: cell-based; settings: comparison HIV-1 / HIV-2, same cell type
HIV-1LA1 [9] = test system: HIV-1LA1
Protocol: (§4) The resulting reverse transcriptase (RT) activity in counts per minute was determined using the assay described, below, in Section 6.1.5. See, Reed, L. J. et al., 1938, Am. J. Hyg. 27: 493-497 for an explanation of TCID50 calculations.
(§5) The micro-reverse transcriptase (RT) assay was adapted from Goff et al. (Goff, S. et al., 1981, J. Virol. 38:239-248) and Willey et al. (Willey, R. et al., 1988, J. Virol. 62:139-147). Supernatants from virus/cell cultures are adjusted to 1% Triton-X100. A 10 μl sample of supernatant was added to 50 μl of RT cocktail in a 96-well U-bottom microtitre plate and the samples incubated at 37° C. for 90 min. The RT cocktail contained 75 mM KCl, 2 mM dithiothreitol, 5 mM MgCl2, 5 μg/ml poly A (Pharmacia, cat. No. 27-4110-01), 0.25 units/ml oligo dT (Pharmacia, cat. No. 27-7858-01), 0.05% NP40, 50 mM Tris-HCl, pH 7.8, 0.5 μM non-radioactive dTTP, and 10 μCi/ml ^32P-dTTP (Amersham, cat. No. PB.10167).
After the incubation period, 40 μl of reaction mixture was applied to a Schleicher and Schuell (S+S) NA45 membrane (or DE81 paper) saturated in 2×SSC buffer (0.3 M NaCl and […] sodium citrate) held in a S+S Minifold over one sheet of GB003 (S+S) filter paper, with partial vacuum applied. Each well of the minifold was washed four times with 200 μl 2×SSC, under full vacuum. The membrane was removed from the minifold and washed 2 more times in a pyrex dish with an excess of 2×SSC. Finally, the membrane was drained on absorbent paper, placed on Whatman #3 paper, covered with Saran wrap, and exposed to film overnight at −70° C.
After 7 days of culture, cell-free supernatant was tested for the presence of RT activity as a measure of successful infection.

HIV-2NIHZ = experiment: Cell free virus infection assay, CEM cells, reverse transcriptase readout; format: cell-based; settings: 25 TCID50 HIV-2NIHZ, 7 days
Protocol: as §4, §5
After the incubation period, 40 μl of reaction mixture was applied to a Schleicher and Schuell (S+S) NA45 membrane (or DE81 paper) saturated in 2×SSC buffer (0.3 M NaCl and […] sodium citrate) held in a S+S Minifold over one sheet of GB003 (S+S) filter paper, with partial vacuum applied. Each well of the minifold was washed four times with 200 μl 2×SSC, under full vacuum. […]

H-YTSLIHSLIEESQNQQEK-OH [Peptide T-4]
IC50, antiviral activity (HIV-1/IIIb): > 400 mg/L

Ac-NNLLRAIEAQQHLLQLTVWGIKQLQARILAVERYLKDQ-NH2 [DP-107]
toxicity in in vitro studies and in animals [1]: non-toxic

DP-180: control peptide incorporating the amino acid residues of DP-178 in a scrambled sequence (SSESFTLLEQWNNWKLQLAEQWLEQINEKHYLEDIS; Human immunodeficiency virus) [reference compound]
concentration with no evidence of anti-fusogenic activity (HIV-1LA1 [2]; high concentration tested): > 40 µg/mL

CC(C)(C)NC(=O)[C@@H]1CN(Cc2cccnc2)CCN1C[C@@H](O)C[C@@H](Cc1ccccc1)C(=O)N[C@H]1c2ccccc2C[C@H]1O [Indinavir]
EC50 (HIV-1IIIb [3]): 0.0276 mg/L (≈ 0.045 µM)

Ac-LQARILAVERYLKDQQQ-NH2 (N-terminus and C-terminus assumed) [DP-116]
activity previously shown in the cell-free virus infection assay (HIV-1LA1 [4]): inactive; also recorded: ineffective as a HIV inhibitor; also recorded: negative for inhibition of HIV-1 infection

CC(C)c1nc(CN(C)C(=O)N[C@H](C(=O)N[C@@H](Cc2ccccc2)C[C@H](O)[C@H](Cc2ccccc2)NC(=O)OCc2cncs2)C(C)C)cs1 [ABT-538]
antiviral activity in vitro (HIV-1 [5]): potent antiviral activity | CD4 lymphocyte counts (HIV-1 [6]; AIDS patients): rise substantially | plasma HIV-1 levels (HIV-1 [6]; AIDS patients): decrease exponentially | pharmacokinetic and safety profiles in vivo (HIV-1 [6]; human, in vivo): favorable pharmokinetic and safety profiles

Cc1cn([C@H]2C[C@H](N=[N+]=[N-])[C@@H](CO)O2)c(=O)[nH]c1=O [AZT, 3′-azido-2′,3′-dideoxythymidine]
EC50 (HIV-1IIIb [3]): 13.1 mg/L (≈ 49.2 µM)

Cc1c(O)cccc1C(=O)N[C@@H](CSc1ccccc1)[C@H](O)CN1C[C@H]2CCCC[C@H]2C[C@H]1C(=O)NC(C)(C)C [Nelfinavir, reference compound]
EC50 (HIV-1IIIb [3]): 0.00927 mg/L (≈ 0.0163 µM) | EC50 (HIV-1IIIb [7]; Human immunodeficiency virus 1, read-out: Dm Drug #2 (dose required for 50% effect)): 0.0609 mg/L

enfuvirtide
viability at 0 h, 2.5 µg/mL ([8]; 2.5 μg/ml, 0 hours): 98% | viability at 24 h, 2.5 µg/mL ([8]; 2.5 μg/ml, 24 hours): 93% | viability at 48 h, 2.5 µg/mL ([8]; 2.5 μg/ml, 48 hours): 96% | viability at 72 h, 2.5 µg/mL ([8]; 2.5 μg/ml, 72 hours): 96% | viability at 0 h, 10 µg/mL ([8]; 10 μg/ml, 0 hours): 98% | viability at 24 h, 10 µg/mL ([8]; 10 μg/ml, 24 hours): 97% | viability at 48 h, 10 µg/mL ([8]; 10 μg/ml, 48 hours): 98% | viability at 72 h, 10 µg/mL ([8]; 10 μg/ml, 72 hours): 98% | viability at 0 h, 40 µg/mL ([8]; 40 μg/ml, 0 hours): 98% | viability at 24 h, 40 µg/mL ([8]; 40 μg/ml, 24 hours): 97% | viability at 48 h, 40 µg/mL ([8]; 40 μg/ml, 48 hours): 95% | viability at 72 h, 40 µg/mL ([8]; 40 μg/ml, 72 hours): 97% | non-cytotoxic peptide concentration relative to HIV inhibitory dose (CEM cells): greater than 3 log | concentration non-cytotoxic to cells in culture (highest tested) (CEM cells; CEM cells, 3 days): > 40 µg/mL | cytotoxic effects on cells in culture (CEM cells; CEM cells, up to 40 μg/ml, 3 days): no cytotoxic effects | toxicity in in vitro studies and in animals [1]: non-toxic

Nc1ccn([C@@H]2CS[C@H](CO)O2)c(=O)n1 [Peptide 3TC, reference compound]
EC50 (HIV-1IIIb [3]): 0.0748 mg/L (≈ 0.326 µM) | Dm Drug #2 (dose required for 50% effect) (HIV-1IIIb [7]; experiments T20:3TC 2:1, T20:Nelfinavir 5:1): 63.73 ng/mL

Enfuvirtide
selectivity as inhibitor of HIV-1-mediated over HIV-2 mediated cell fusion (HIV-1LA1 [2]): 4 log | concentration affording complete protection against syncytium formation (lowest concentration tested) (HIV-1LA1 [2]; HIVLA1 infected CEM cells, overnight co-cultivation): ≤ 12.5 ng/mL | lowest effective inhibitory concentration completely blocking virus induced syncytia formation (HIV-1LA1 [2]; Molt4 + chronically infected CEM cells, 24 hr): 1 to 10 ng/mL | peptide concentration blocking HIV-1-mediated syncytia formation (HIV-1LA1 [2]; comparison HIV-1 / HIV-2): below 1 ng/ml | concentration affording complete protection against syncytium formation (lowest concentration used) (HIV-1MN): ≤ 100 ng/mL | concentration affording complete protection against syncytium formation (lowest concentration used) (HIV-1RF): ≤ 100 ng/mL | concentration affording complete protection against syncytium formation (lowest concentration used) (HIV-1SF2): ≤ 100 ng/mL | concentration failing to block HIV-2 mediated syncytia formation (HIV-2): > 10 µg/mL | IC50, inhibition of HIV-1 infection (HIV-1LA1 [9]; 62 TCID50 HIV-1LA1, CEM cells, 7 days): about 3 ng/ml | IC50, inhibition of RT production from infected cells (HIV-1LA1 [9]; 247 TCID50 HIV-1LA1, CEM cells, 7 days): 0.09 mg/L | potency as HIV-1 inhibitor relative to HIV-2 inhibitor (HIV-1LA1 [9]; HIV-1LA1 vs HIV-2NIHZ, cell-free infection): two logs more potent | IC50 for HIV-2NIHZ (HIV-2NIHZ): much higher IC50 | Dm T20 (dose required for 50% effect) (HIV-1IIIb [7]; experiment T20:3TC 1:1.5): 158.87 ng/mL | Dm T20 (dose required for 50% effect) (HIV-1IIIb [7]; experiment T20:3TC 2:1): 298.50 ng/mL | Dm T20 (dose required for 50% effect) (HIV-1IIIb [7]; experiment T20:Indinavir 10:1): 298.50 ng/mL | Dm T20 (dose required for 50% effect) (HIV-1IIIb [7]; experiment T20:Nelfinavir 1.33:1): 172.02 ng/mL | Dm T20 (dose required for 50% effect) (HIV-1IIIb [7]; experiment T20:Nelfinavir 5:1): 298.50 ng/mL | Dm T20 (dose required for 50% effect) (HIV-1IIIb [7]; experiment T:20:AZT 1:10): 298.50 ng/mL
